Patent publication US20230284620A1, “MIXTURES OF PYRIDAZINES AS HERBICIDAL COMPOSITIONS” (SYNGENTA CROP PROTECTION AG, priority 2020, published 2023)
Values joined by “and” are separate entries in the source; they are usually repeats but may differ in a detail not shown here. Equal values may be shown once.

Columns and labels:
Test in all cases: Post-emergence glasshouse herbicide test, visual phytotoxicity
Format in all cases: in vivo
Conditions in all cases: 13 days
[1] = tested on: Abutilon threophrasti (ABUTH)
Protocol: (§1) Seeds of Setaria faberi (SETFA), Echinochloa crus-galli (ECHCG), Digitaria sanguinalis (DIGSA), Lolium perenne (LOLPE), Alopecurus myosuroides (ALOMY), Chenopodium album (CHEAL), Ipomoea hederacea (IPOHE), Stellaria media (STEME), Abutilon threophrasti (ABUTH) and Amaranthus retroflexus (AMARE) were sown in standard sterilised soil in pots. After cultivation for 8 days under controlled conditions in a glasshouse (at 24/19° C., day/night; 16 hours light; no humidity control), the plants were sprayed at 500 l/Ha with an aqueous spray solution derived from the formulation of the technical active ingredients in a small amount of acetone and a solvent and emulsifier mixture referred to as IF50 (11.12% Emulsogen EL360 TM+44.44% N-methylpyrrolidone+44.44% Dowanol DPM glycol ether), to create a 50 g/l solution which was then diluted using 0.2% Genapol X080 (CAS Number: 9043-30-5) as diluent to give the desired final dose of test compound.
(§2) Where active ingredients were applied as mixtures, aqueous spray solutions were prepared as above, containing both active ingredients.
(§3) The test plants were then grown under controlled conditions in a glasshouse (at 24/18° C., day/night; 15 hours light; 50% humidity) and watered twice daily. After 13 days, the test was evaluated visually for percentage phytotoxicity to the plants (where 100=total damage to plant; 0=no damage to plant; and NC=not captured) when compared to control untreated plants. Two to four replicates were applied for each treatment in a randomised block test design.
(§4) 22., E=X+Y−(X*Y/100), where • X=average percent phytotoxicity of herbicide A when applied at a certain rate • Y=average percent phytotoxicity using herbicide B when applied at a certain rate • E=the expected effect of the mixture of herbicides A and B as calculated from the Colby formula.

[2] = tested on: Alopecurus myosuroides (ALOMY)
Protocol: as §1, §2, §3, §4

[3] = tested on: Amaranthus retroflexus (AMARE)
Protocol: as §1, §2, §3, §4

[4] = tested on: Chenopodium album (CHEAL)
Protocol: as §1, §2, §3, §4

[5] = tested on: Digitaria sanguinalis (DIGSA)
Protocol: as §1, §2, §3, §4

[6] = tested on: Echinochloa crus-galli (ECHCG)
Protocol: as §1, §2, §3, §4

[7] = tested on: Ipomoea hederacea (IPOHE)
Protocol: as §1, §2, §3, §4

Lolium perenne (LOLPE) = tested on: Lolium perenne (LOLPE)
Protocol: as §1, §2, §3, §4

Setaria faberi (SETFA) = tested on: Setaria faberi (SETFA)
Protocol: as §1, §2, §3, §4

Stellaria media (STEME) = tested on: Stellaria media (STEME)
Protocol: as §1, §2, §3, §4

CC1(C)CN(Cc2ccccc2NS(=O)(=O)C(F)(F)F)C1=O [B-IV]
percentage phytotoxicity ABUTH ([1]; 31.25 g/ha): 15%
percentage phytotoxicity ABUTH ([1]; 62.5 g/ha): 3%
percentage phytotoxicity ABUTH ([1]; 125 g/ha): 13%
percentage phytotoxicity ABUTH ([1]; 250 g/ha): 45%
percentage phytotoxicity ABUTH ([1]; 500 g/ha): 60%
percentage phytotoxicity ALOMY ([2]; 31.25 g/ha): 0%
percentage phytotoxicity ALOMY ([2]; 62.5 g/ha): 0%
percentage phytotoxicity ALOMY ([2]; 125 g/ha): 23%
percentage phytotoxicity ALOMY ([2]; 250 g/ha): 50%
percentage phytotoxicity ALOMY ([2]; 500 g/ha): 73%
percentage phytotoxicity AMARE ([3]; 31.25 g/ha): 73%
percentage phytotoxicity AMARE ([3]; 62.5 g/ha): 80%
percentage phytotoxicity AMARE ([3]; 125 g/ha): 83%
percentage phytotoxicity AMARE ([3]; 250 g/ha): 85%
percentage phytotoxicity AMARE ([3]; 500 g/ha): 83%
percentage phytotoxicity CHEAL ([4]; 31.25 g/ha): 15%
percentage phytotoxicity CHEAL ([4]; 62.5 g/ha): 30%
percentage phytotoxicity CHEAL ([4]; 125 g/ha): 15%
percentage phytotoxicity CHEAL ([4]; 250 g/ha): 20%
percentage phytotoxicity CHEAL ([4]; 500 g/ha): 58%
percentage phytotoxicity DIGSA ([5]; 31.25 g/ha): 0%
percentage phytotoxicity DIGSA ([5]; 62.5 g/ha): 0%
percentage phytotoxicity DIGSA ([5]; 125 g/ha): 18%
percentage phytotoxicity DIGSA ([5]; 250 g/ha): 38%
percentage phytotoxicity DIGSA ([5]; 500 g/ha): 70%
percentage phytotoxicity ECHCG ([6]; 31.25 g/ha): 0%
percentage phytotoxicity ECHCG ([6]; 62.5 g/ha): 0%
percentage phytotoxicity ECHCG ([6]; 125 g/ha): 45%
percentage phytotoxicity ECHCG ([6]; 250 g/ha): 53%
percentage phytotoxicity ECHCG ([6]; 500 g/ha): 63%
percentage phytotoxicity IPOHE ([7]; 31.25 g/ha): 75%
percentage phytotoxicity IPOHE ([7]; 62.5 g/ha): 35%
percentage phytotoxicity IPOHE ([7]; 125 g/ha): 88%
percentage phytotoxicity IPOHE ([7]; 250 g/ha): 89%
percentage phytotoxicity IPOHE ([7]; 500 g/ha): 93%
percentage phytotoxicity LOLPE (Lolium perenne (LOLPE); 31.25 g/ha): 0%
percentage phytotoxicity LOLPE (Lolium perenne (LOLPE); 62.5 g/ha): 0%
percentage phytotoxicity LOLPE (Lolium perenne (LOLPE); 125 g/ha): 33%
percentage phytotoxicity LOLPE (Lolium perenne (LOLPE); 250 g/ha): 48%
percentage phytotoxicity LOLPE (Lolium perenne (LOLPE); 500 g/ha): 80%
percentage phytotoxicity SETFA (Setaria faberi (SETFA); 31.25 g/ha): 0%
percentage phytotoxicity SETFA (Setaria faberi (SETFA); 62.5 g/ha): 0%
percentage phytotoxicity SETFA (Setaria faberi (SETFA); 125 g/ha): 23% and 22%
percentage phytotoxicity SETFA (Setaria faberi (SETFA); 250 g/ha): 48%
percentage phytotoxicity SETFA (Setaria faberi (SETFA); 500 g/ha): 50%
percentage phytotoxicity STEME (Stellaria media (STEME); 31.25 g/ha): 68%
percentage phytotoxicity STEME (Stellaria media (STEME); 62.5 g/ha): 78%
percentage phytotoxicity STEME (Stellaria media (STEME); 125 g/ha): 80%
percentage phytotoxicity STEME (Stellaria media (STEME); 250 g/ha): 80%
percentage phytotoxicity STEME (Stellaria media (STEME); 500 g/ha): 83%

Nc1c(F)c(-c2ccc3cc[nH]c3c2F)nc(C(=O)O)c1Cl [B-VI]
percentage phytotoxicity ABUTH ([1]; 0.625 g/ha): 48%
percentage phytotoxicity ABUTH ([1]; 1.25 g/ha): 70%
percentage phytotoxicity ABUTH ([1]; 2.5 g/ha): 78%
percentage phytotoxicity ABUTH ([1]; 5 g/ha): 80%
percentage phytotoxicity ABUTH ([1]; 10 g/ha): 93%
percentage phytotoxicity ALOMY ([2]; 0.625 g/ha): 0%
percentage phytotoxicity ALOMY ([2]; 1.25 g/ha): 0%
percentage phytotoxicity ALOMY ([2]; 2.5 g/ha): 10%
percentage phytotoxicity ALOMY ([2]; 5 g/ha): 8%
percentage phytotoxicity ALOMY ([2]; 10 g/ha): 25%
percentage phytotoxicity AMARE ([3]; 0.625 g/ha): 83%
percentage phytotoxicity AMARE ([3]; 1.25 g/ha): 83%
percentage phytotoxicity AMARE ([3]; 2.5 g/ha): 90%
percentage phytotoxicity AMARE ([3]; 5 g/ha): 98%
percentage phytotoxicity AMARE ([3]; 10 g/ha): 100%
percentage phytotoxicity CHEAL ([4]; 0.625 g/ha): 75%
percentage phytotoxicity CHEAL ([4]; 1.25 g/ha): 80%
percentage phytotoxicity CHEAL ([4]; 2.5 g/ha): 83%
percentage phytotoxicity CHEAL ([4]; 5 g/ha): 94%
percentage phytotoxicity CHEAL ([4]; 10 g/ha): 98%
percentage phytotoxicity DIGSA ([5]; 0.625 g/ha): 0%
percentage phytotoxicity DIGSA ([5]; 1.25 g/ha): 0%
percentage phytotoxicity DIGSA ([5]; 2.5 g/ha): 13%
percentage phytotoxicity DIGSA ([5]; 5 g/ha): 15%
percentage phytotoxicity DIGSA ([5]; 10 g/ha): 43%
percentage phytotoxicity ECHCG ([6]; 0.625 g/ha): 0%
percentage phytotoxicity ECHCG ([6]; 1.25 g/ha): 0%
percentage phytotoxicity ECHCG ([6]; 2.5 g/ha): 25%
percentage phytotoxicity ECHCG ([6]; 5 g/ha): 10%
percentage phytotoxicity ECHCG ([6]; 10 g/ha): 53%
percentage phytotoxicity IPOHE ([7]; 0.625 g/ha): 25%
percentage phytotoxicity IPOHE ([7]; 1.25 g/ha): 35%
percentage phytotoxicity IPOHE ([7]; 2.5 g/ha): 38%
percentage phytotoxicity IPOHE ([7]; 5 g/ha): 48%
percentage phytotoxicity IPOHE ([7]; 10 g/ha): 65%
percentage phytotoxicity LOLPE (Lolium perenne (LOLPE); 0.625 g/ha): 0%
percentage phytotoxicity LOLPE (Lolium perenne (LOLPE); 1.25 g/ha): 0%
percentage phytotoxicity LOLPE (Lolium perenne (LOLPE); 2.5 g/ha): 5%
percentage phytotoxicity LOLPE (Lolium perenne (LOLPE); 5 g/ha): 5%
percentage phytotoxicity LOLPE (Lolium perenne (LOLPE); 10 g/ha): 25%
percentage phytotoxicity SETFA (Setaria faberi (SETFA); 0.625 g/ha): 0%
percentage phytotoxicity SETFA (Setaria faberi (SETFA); 1.25 g/ha): 0%
percentage phytotoxicity SETFA (Setaria faberi (SETFA); 2.5 g/ha): 5%
percentage phytotoxicity SETFA (Setaria faberi (SETFA); 5 g/ha): 2%
percentage phytotoxicity SETFA (Setaria faberi (SETFA); 10 g/ha): 40%
percentage phytotoxicity STEME (Stellaria media (STEME); 0.625 g/ha): 65%
percentage phytotoxicity STEME (Stellaria media (STEME); 1.25 g/ha): 75%
percentage phytotoxicity STEME (Stellaria media (STEME); 2.5 g/ha): 90%
percentage phytotoxicity STEME (Stellaria media (STEME); 5 g/ha): 93%
percentage phytotoxicity STEME (Stellaria media (STEME); 10 g/ha): 99%
